Data published in patent EP0545103A1, “Insecticidal, acaricidal and molluscicidal 1-(substituted) thioalkylpyrroles” (priority 1991, dated 1993).

Key:
Type in all cases: in vivo
Parameters in all cases: key: 0: no effect; 10-25% kill; 26-35% kill; 36-45% kill; 46-55% kill; 56-65% kill; 66-75% kill; 76-85% kill; 86-99% kill; 9: 100% kill
[1] = system: Tetranychus urticae (OP-resistant strain), 2-spotted spider mite; assay: 2-spotted spider mite test, dipped infested limabean plants
Outline: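 Compound dissolved at 10,000 ppm in 35% aqueous acetone, then water-diluted; limabean primary leaves carrying ~100 OP-resistant mites each are dipped 3 s and dried. Adult mortality read on one leaf after 2 days, eggs/newly emerged nymphs on another after 5 days, scored by rating scale.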

[2] = system: Heliothis virescens, 3rd instar tobacco budworm; assay: Tobacco budworm 3rd instar test, dipped cotton cotyledons; conditions: mortality rating after 3 days
Outline: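 Rating-scale scores of mortality and reduced feeding, taken 3 days after single third-instar larvae were caged on dried cotton cotyledon quarters. Cotyledons were pre-dipped in test solutions diluted with water from a 10,000 ppm stock in 35% acetone.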

[3] = system: Aphis fabae, mixed instar, bean aphid; assay: Bean aphid spray test on nasturtium; conditions: 100 ppm
Outline: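 Mortality rated on a scale 2 days after treatment of aphid-infested (100-200 per plant, infested a day earlier) ~5 cm nasturtiums sprayed to complete coverage. Spray solutions: 10,000 ppm compound in 35% acetone in water, with further water dilutions.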

[4] = system: Empoasca abrupta, adult, western potato leafhopper; assay: Western potato leafhopper contact test, dipped limabean leaf
Outline: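 Sieva limabean leaf dipped 3 s in compound solution (diluted in water from 10,000 ppm stock in 35% acetone), dried, and infested with about 10 adult leafhoppers on moist filter paper. Mortality counted after 2 days and scored on a rating scale.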

[5] = 10 ppm, mite eggs, rating scale 0-9
[6] = 10 ppm, mite nymphs, rating scale 0-9
[7] = 100 ppm, mite eggs, rating scale 0-9
[8] = 300 ppm, mite eggs, rating scale 0-9
[9] = 300 ppm, mite nymphs, rating scale 0-9
[10] = 10 ppm, contact, rating scale 0-9
[11] = 100 ppm, contact, rating scale 0-9
[12] = spray, mortality rating after 2 days
[13] = 300 ppm, adult mites, rating scale 0-9
[14] = 10 ppm, mortality rating after 2 days
[15] = 100 ppm, mortality rating after 2 days
[16] = 300 ppm, mortality rating after 2 days
[17] = 10 ppm, adult mites, rating scale 0-9
[18] = 100 ppm, adult mites, rating scale 0-9
[19] = 100 ppm, mite nymphs, rating scale 0-9

Structure (SMILES)	OP-RESISTANT MITES Egg [1, 5]	OP-RESISTANT MITES Egg [1, 7]	OP-RESISTANT MITES Egg [1, 8]	OP-RESISTANT MITES Nymph [1, 9]	TOBACCO BUDWORM 3rd Instar ([2]; 10 ppm)	APHIDS ([3]; rating scale 0-9)	LEAFHOPPER Contact [4, 11]	OP-RESISTANT MITES Egg ([1]; 10 ppm, rating after 5 days)	OP-RESISTANT MITES Egg ([1]; 100 ppm, rating after 5 days)	OP-RESISTANT MITES Egg ([1]; 300 ppm, rating after 5 days)	TOBACCO BUDWORM 3rd Instar ([2]; 100 ppm)	TOBACCO BUDWORM 3rd Instar ([2]; 1000 ppm)	APHIDS [3, 12]	OP-RESISTANT MITES Adult [1, 13]	further results
CCOC(=S)SCn1c(Cl)c(Cl)c(C#N)c1-c1ccc(Cl)c(Cl)c1 [Example 28]	0	9 (100% kill)	0	0	0	0	9 (100% kill)								OP-RESISTANT MITES Nymph [1, 6]: 3 (36-45% kill); LEAFHOPPER Contact [4, 10]: 0
CN=C(NC)SCn1c(-c2ccc(Cl)cc2)c(C#N)c(Cl)c1C(F)(F)F [Example 2]					9 (100% kill)			0	9 (100% kill)	0	9 (100% kill)	9 (100% kill)	0		
CN=C(NC)SCn1c(Br)c(Br)c(C#N)c1Br [Example 14]			0	0		0	0				0	8 (86-99% kill)		0	
CC1(C)CN=C(SCn2c(-c3ccc(Cl)cc3)c(C#N)c(Br)c2C(F)(F)F)NC1 [Example 10]			0	0	0	0	7 (76-85% kill)							0	LEAFHOPPER Contact [4, 10]: 0
CN(C)C(=S)SCn1c(-c2ccc(Cl)cc2)c(C#N)c(Br)c1C(F)(F)F [Example 24]					0			0	9 (100% kill)	9 (100% kill)	9 (100% kill)	9 (100% kill)	7 (76-85% kill)		OP-RESISTANT MITES Adult [1, 14]: 9 (100% kill); OP-RESISTANT MITES Nymph ([1]; 10 ppm, rating after 5 days): 0; OP-RESISTANT MITES Adult [1, 15]: 9 (100% kill); OP-RESISTANT MITES Adult [1, 16]: 0; LEAFHOPPER Contact [4, 14]: 0; LEAFHOPPER Contact [4, 15]: 9 (100% kill)
CSCn1c(Br)c(Br)c(C#N)c1-c1ccc(C(F)(F)F)cc1 [Example 44]					0			0	7 (76-85% kill)	0	0	9 (100% kill)	0		OP-RESISTANT MITES Adult [1, 14]: 0; OP-RESISTANT MITES Nymph ([1]; 100 ppm, rating after 5 days): 0; LEAFHOPPER Contact [4, 14]: 0; LEAFHOPPER Contact [4, 15]: 7 (76-85% kill)
CCOC(=S)SCn1c(-c2ccc(Cl)c(Cl)c2)c(Br)c(C(F)(F)F)c1C(F)(F)F [Example 35]			0	0		0	9 (100% kill)								OP-RESISTANT MITES Nymph [1, 6]: 0; LEAFHOPPER Contact [4, 10]: 9 (100% kill)
N#Cc1c(Br)c(Br)n(CSC2=NCCCN2)c1Br [Example 13]			0	0		0	0					0		5 (56-65% kill)	
CSCn1c(-c2ccc(Cl)cc2)c(C#N)c(Br)c1C(F)(F)F [Example 25]										0			0		OP-RESISTANT MITES Adult [1, 16]: 7 (76-85% kill); OP-RESISTANT MITES Nymph ([1]; 300 ppm, rating after 5 days): 0; LEAFHOPPER Contact [4, 14]: 0; LEAFHOPPER Contact [4, 15]: 9 (100% kill)
CCOC(=S)SCn1c(-c2ccc(Cl)cc2)c(C#N)c(Br)c1C(F)(F)F [Example 29]	9 (100% kill)	9 (100% kill)	0	0		0	9 (100% kill)							9 (100% kill)	OP-RESISTANT MITES Adult [1, 17]: 9 (100% kill); OP-RESISTANT MITES Adult [1, 18]: 9 (100% kill); LEAFHOPPER Contact [4, 10]: 9 (100% kill)
N=C(N)SCn1c(-c2ccc(Cl)c(Cl)c2)c(Br)c(C(F)(F)F)c1C(F)(F)F [Example 18]	0	0	0	0	0	0					9 (100% kill)	9 (100% kill)		9 (100% kill)	OP-RESISTANT MITES Adult [1, 17]: 0; OP-RESISTANT MITES Nymph [1, 6]: 0; OP-RESISTANT MITES Adult [1, 18]: 9 (100% kill); OP-RESISTANT MITES Nymph [1, 19]: 0
CC(C)OC(=S)SCn1c(-c2ccc(Cl)cc2)c(C#N)c(Br)c1C(F)(F)F [Example 30]	9 (100% kill)	9 (100% kill)	0	0		3 (36-45% kill)								9 (100% kill)	OP-RESISTANT MITES Adult [1, 17]: 9 (100% kill); OP-RESISTANT MITES Adult [1, 18]: 9 (100% kill)
CN(C)C(=S)SCn1c(-c2ccc(Cl)cc2)c(C#N)c(Cl)c1C(F)(F)F [Example 21]					9 (100% kill)			0	8 (86-99% kill)	0	9 (100% kill)	9 (100% kill)	0		OP-RESISTANT MITES Adult [1, 14]: 9 (100% kill); OP-RESISTANT MITES Nymph ([1]; 10 ppm, rating after 5 days): 0; OP-RESISTANT MITES Adult [1, 15]: 9 (100% kill); OP-RESISTANT MITES Nymph ([1]; 100 ppm, rating after 5 days): 0; OP-RESISTANT MITES Adult [1, 16]: 9 (100% kill); OP-RESISTANT MITES Nymph ([1]; 300 ppm, rating after 5 days): 9 (100% kill)
N#Cc1c(Br)c(C(F)(F)F)n(CSC2=NCCN2)c1-c1ccc(Cl)cc1 [Example 7]								0	9 (100% kill)	0			0		OP-RESISTANT MITES Adult [1, 14]: 9 (100% kill); OP-RESISTANT MITES Nymph ([1]; 10 ppm, rating after 5 days): 0; OP-RESISTANT MITES Adult [1, 15]: 9 (100% kill); OP-RESISTANT MITES Adult [1, 16]: 9 (100% kill); OP-RESISTANT MITES Nymph ([1]; 300 ppm, rating after 5 days): 0
FC(F)(F)c1c(Br)c(-c2ccc(Cl)c(Cl)c2)n(CSC2=NCCCN2)c1C(F)(F)F [Example 17]	0	7 (76-85% kill)	0	0		0	5 (56-65% kill)							7 (76-85% kill)	OP-RESISTANT MITES Adult [1, 17]: 0; OP-RESISTANT MITES Nymph [1, 6]: 0; OP-RESISTANT MITES Adult [1, 18]: 0; OP-RESISTANT MITES Nymph [1, 19]: 0
